In the experiment the test system is BxPC-3-Luc. The experiment can be described thus: Solid tumour and haematological malignancy assay (CellTiterGlo). Format: cell-based. Particulars: 72 hr, Table VII. The protocol:
In vitro viability assay were performed to assess the effects of compounds on cell viability in selected cell lines over 72 hr using the CellTiterGlo (CTG, Promega-G7573) assay. The tests were performed in duplicates with treatment of compounds at 9 points, 3.16 folds titration in 96 well plates over ˜72 hr. The compound starting concentrations were […]. Cell viability assay using CellTiterGlo in 96-well plate were performed. Compound treatment 72 hrs, standard growth conditions, duplicates. Compounds were dissolved to 40 mM with thawed […]. Compounds were serially diluted at 3.16 fold in thawed DMSO, and warmed to 37° C. before being dissolved in media (2 μl+200 μl). After compounds were dissolved in media, media containing compounds were warmed to 37° C. in incubator and then compounds in media were added to cell plates (50 μl+50 μl) in duplicates. The compounds' final concentrations were from 198M to 19.9 nM. All compound solubilities were checked and recorded again, then the plates were transferred to CO2 tissue culture incubator immediately and incubated for 3 days. DMSO final concentration is 0.5%.

SMILES strings stand for the structures.

As to `CC(NP(=O)(OC[C@@H]1C[C@@H](O)[C@H](n2cnc3c(N)nc(Cl)nc32)O1)Oc1cccc2ccccc12)C(=O)OCc1ccccc1` (stereo in doubt) [S, (2R)-benzyl 2-((((2S,4R,5R)-5-(6-amino-2-chloro-9H-purin-9-yl)-4-hydroxytetrahydrofuran-2-yl)methoxy)(naphthalen-1-yloxy)phosphorylamino)propanoate], the MI % was 82.6%. For `Nc1nc(Cl)nc2c1ncn2[C@@H]1O[C@H](CO)C[C@H]1O` [2-Cl-cordycepin, 3′-deoxy-2-chloroadenosine, reference compound], the MI % is given as −1.3%.

Source of the values: patent US12054510B2, “2′ and/or 5′ amino-acid ester phosphoramidate 3′-deoxy adenosine derivatives as anti-cancer compounds” (Nucana plc, priority 2014, dated 2024).
